ChEMBL document CHEMBL5726044, “Imidazopyridazines as Akt kinase inhibitors” (2017)

How the values were obtained:
[1] = biological target: RAC-beta serine/threonine-protein kinase (Homo sapiens, UniProt P31751); assay: Kinase Assay: His-tagged human recombinant kinase full-length Akt2 expressed in insect cells and activated by PDK1 was purchased form Invitrogen (part number PV 3975). As substrate for the kinase reaction the biotinylated peptide biotin-Ahx-[…] (C-terminus in amide form) was used which can be purchased e.g. from the company Biosynthan GmbH (Berlin-Buch, Germany). For the assay 50 nl of a 100 fold concentrated solution of the test compound in DMSO was pipetted into a black low volume 384 well microtiter plate (Greiner Bio-One, Frickenhausen, Germany), 2 μl of a solution of Akt2 in assay buffer [50 mM TRIS/HCl pH 7.5, 5 mM MgCl2, 1 mM dithiothreitol, 0.02% (v/v) Triton X-100 (Sigma)] were added and the mixture was incubated for 15 min at 22° C. to allow pre-binding of the test compounds to the enzyme before the start of the kinase reaction. Then the kinase reaction was started by the addition of 3 μl of a solution of adenosine-tri-phosphate (ATP, 16.7 μM=>final conc. in the 5 μl assay volume is 10 μM) and substrate (1.67 μM=>final conc. in the 5 μl assay volume is 1 μM) in assay buffer and the resulting mixture was incubated for a reaction time of 60 min at 22° C. The concentration of Akt2 in the assay was adjusted depending of the activity of the enzyme lot and was chosen appropriate to have the assay in the linear range, typical enzyme concentrations were in the range of about 0.2 ng/μl (final conc. in the 5 μl assay volume). The reaction was stopped by the addition of 5 μl of a solution of HTRF detection reagents (200 nM streptavidine-XL665 [Cisbio] and 1.5 nM anti-phosho-Serine antibody [Millipore, cat. #35-001] and 0.75 nM LANCE Eu-W 1024 labeled anti-mouse IgG antibody [Perkin Elmer]) in an aqueous EDTA-solution (100 mM EDTA, 0.1% (w/v) bovine serum albumin in 50 mM HEPES/NaOH pH 7.5). The resulting mixture was incubated 1 h at 22° C. to allow the binding of the biotinylated phosphorylated peptide to the streptavidine-XL665 and the antibodies.
Chain of RAC-beta serine/threonine-protein kinase (P31751 whole entry): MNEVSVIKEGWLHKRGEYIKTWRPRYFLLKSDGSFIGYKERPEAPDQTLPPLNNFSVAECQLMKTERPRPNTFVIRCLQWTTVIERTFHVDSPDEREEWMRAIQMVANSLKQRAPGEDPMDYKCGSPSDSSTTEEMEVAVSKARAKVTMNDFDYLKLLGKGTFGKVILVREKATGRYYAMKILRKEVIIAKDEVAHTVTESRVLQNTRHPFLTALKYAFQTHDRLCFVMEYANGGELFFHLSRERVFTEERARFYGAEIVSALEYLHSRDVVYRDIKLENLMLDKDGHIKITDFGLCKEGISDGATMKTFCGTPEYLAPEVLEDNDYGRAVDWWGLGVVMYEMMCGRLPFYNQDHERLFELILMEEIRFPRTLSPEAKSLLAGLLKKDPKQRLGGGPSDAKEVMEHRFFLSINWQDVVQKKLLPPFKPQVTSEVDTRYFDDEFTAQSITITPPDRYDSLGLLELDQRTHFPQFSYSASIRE

[2] = biological target: RAC-alpha serine/threonine-protein kinase (Homo sapiens, UniProt P31749); assay: Kinase Assay: For the assay 50 nl of a 100 fold concentrated solution of the test compound in DMSO was pipetted into a black low volume 384 well microtiter plate (Greiner Bio-One, Frickenhausen, Germany), 2 μl of a solution of Akt1 in assay buffer [50 mM TRIS/HCl pH 7.5, 5 mM MgCl2, 1 mM dithiothreitol, 0.02% (v/v) Triton X-100 (Sigma)] were added and the mixture was incubated for 15 min at 22° C. to allow pre-binding of the test compounds to the enzyme before the start of the kinase reaction. Then the kinase reaction was started by the addition of 3 μl of a solution of adenosine-tri-phosphate (ATP, 16.7 μM=>final conc. in the 5 μl assay volume is 10 μM) and substrate (1.67 μM=>final conc. in the 5 μl assay volume is 1 μM) in assay buffer and the resulting mixture was incubated for a reaction time of 60 min at 22° C. The concentration of Akt1 in the assay was adjusted depending of the activity of the enzyme lot and was chosen appropriate to have the assay in the linear range, typical enzyme concentrations were in the range of about 0.05 ng/μl (final conc. in the 5 μl assay volume). The reaction was stopped by the addition of 5 μl of a solution of HTRF detection reagents (200 nM streptavidine-XL665 [Cisbio] and 1.5 nM anti-phosho-Serine antibody [Millipore, cat. #35-001] and 0.75 nM LANCE Eu-W 1024 labeled anti-mouse IgG antibody [Perkin Elmer]) in an aqueous EDTA-solution (100 mM EDTA, 0.1% (w/v) bovine serum albumin in 50 mM HEPES/NaOH pH 7.5). The resulting mixture was incubated 1 h at 22° C. to allow the binding of the biotinylated phosphorylated peptide to the streptavidine-XL665 and the antibodies. Subsequently the amount of phosphorylated substrate was evaluated by measurement of the resonance energy transfer from the anti-mouse-IgG-Eu-Chelate to the streptavidine-XL665. Therefore, the fluorescence emissions at 620 nm and 665 nm after excitation at 350 nm was measured in a HTRF reader, e.g. a Rubystar (BMG Labtechnologies, Offenburg, Germany) or a Viewlux (Perkin-Elmer).
Chain of RAC-alpha serine/threonine-protein kinase (P31749 whole entry): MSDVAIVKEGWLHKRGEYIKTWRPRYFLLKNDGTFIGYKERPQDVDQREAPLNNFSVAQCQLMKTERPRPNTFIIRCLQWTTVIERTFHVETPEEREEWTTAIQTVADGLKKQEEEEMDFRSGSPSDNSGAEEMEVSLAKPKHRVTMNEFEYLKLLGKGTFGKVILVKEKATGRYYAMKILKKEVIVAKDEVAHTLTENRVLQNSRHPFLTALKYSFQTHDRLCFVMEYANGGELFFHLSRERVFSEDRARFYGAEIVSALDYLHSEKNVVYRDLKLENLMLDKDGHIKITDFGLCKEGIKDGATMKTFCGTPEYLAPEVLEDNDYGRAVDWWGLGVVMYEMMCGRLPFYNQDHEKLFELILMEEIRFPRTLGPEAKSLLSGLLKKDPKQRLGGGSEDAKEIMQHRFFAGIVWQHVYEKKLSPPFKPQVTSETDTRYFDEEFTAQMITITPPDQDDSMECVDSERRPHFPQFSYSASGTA

| SMILES | IC50 [1] | IC50 [2] |
| --- | --- | --- |
| NC1(c2ccc(-c3nc4ccc(C(F)(F)F)nn4c3-c3ccccc3)cc2)CCC1 | 70 nM | 120 nM |
| CCOc1nn2c(-c3ccccc3)c(-c3ccc(C4(N)CCC4)cc3)nc2c(C)c1C | 56 nM | 45 nM |
| NC(=O)c1ccnn2c(-c3ccccc3)c(-c3ccc(C4(N)CCC4)cc3)nc12 | 110 nM | 65 nM |
